Data from patent US8952024B2, “Herbicidal pyrimidone derivatives” (E I du Pont de Nemours and Company, priority 2009, dated 2015).

What was measured:
Assay type in all cases: in vivo
[1] = tested on: green foxtail (Setaria viridis); test: Test B pre-/postemergence plant response
Description: (§1) Seeds of plant species selected from blackgrass (Alopecurus myosuroides), downy bromegrass (Bromus tectorum), green foxtail (Setaria viridis), Italian ryegrass (Lolium multiflorum), wheat (Triticum aestivum), wild oat (Avena fatua), deadnettle (henbit deadnettle, Lamium amplexicaule), galium (catchweed bedstraw, Galium aparine), bermudagrass (Cynodon dactylon), Surinam grass (Brachiaria decumbens), cocklebur (Xanthium strumarium), corn (Zea mays), large crabgrass (Digitaria sanguinalis), woolly cupgrass (Eriochloa villosa), giant foxtail (Setaria faberii), goosegrass (Eleusine indica), johnsongrass (Sorghum halepense), kochia (Kochia scoparia), lambsquarters (Chenopodium album), morningglory (Ipomoea coccinea), nightshade (eastern black nightshade, Solanum ptycanthum), yellow nutsedge (Cyperus esculentus), pigweed (Amaranthus retroflexus), ragweed (common ragweed, Ambrosia elatior), Russian thistle (Salsola kali), soybean (Glycine max), sunflower (common oilseed sunflower, Helianthus annuus) and velvetleaf (Abutilon theophrasti) were planted into a blend of loam soil and sand and treated preemergence with test compounds formulated in a non-phytotoxic solvent mixture which included a surfactant.
(§2) At the same time, plants selected from these crop and weed species and also winter barley (Hordeum vulgare), canarygrass (Phalaris minor), chickweed (Stellaria media) and windgrass (Apera spica-venti) were planted in pots containing Redi-Earth® planting medium (Scotts Company, 14111 Scottslawn Road, Marysville, Ohio 43041) comprising spaghnum peat moss, vermiculite, wetting agent and starter nutrients and treated with postemergence applications of some of the test chemicals formulated in the same manner. Plants ranged in height from 2 to 18 cm (1- to 4-leaf stage) for postemergence treatments.
(§3) Treated plants and controls were maintained in a greenhouse for 13 to 15 days, after which time all treated plants were visually evaluated and compared to controls. Plant response ratings, summarized in Table B, are based on a scale of 0 to 100 where 0 is no effect and 100 is complete control. A dash (-) response means no test result.

[2] = tested on: cocklebur (Xanthium strumarium); test: Test B pre-/postemergence plant response
Description: as §1, §2, §3

[3] = tested on: giant foxtail (Setaria faberii); test: Test B pre-/postemergence plant response
Description: as §1, §2, §3

[4] = tested on: morningglory (Ipomoea spp.); test: Test A pre-/postemergence plant response
How it was run: (§4)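 Each species was treated preemergence via directed soil spray and postemergence at the one- to two-leaf stage, with compounds formulated in a non-phytotoxic solvent plus surfactant. Visual injury relative to untreated controls was rated after about ten days on a 0–100 scale.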

corn (Zea mays) = test: Test A pre-/postemergence plant response
How it was run: as §4

[5] = tested on: wheat (Triticum aestivum); test: Test A pre-/postemergence plant response
How it was run: as §4

[6] = tested on: large crabgrass (Digitaria sanguinalis); test: Test A pre-/postemergence plant response
How it was run: as §4

[7] = tested on: pigweed (Amaranthus retroflexus); test: Test A pre-/postemergence plant response
How it was run: as §4

[8] = tested on: velvetleaf (Abutilon theophrasti); test: Test A pre-/postemergence plant response
How it was run: as §4

[9] = tested on: barnyardgrass (Echinochloa crus-galli); test: Test A pre-/postemergence plant response
How it was run: as §4

[10] = tested on: giant foxtail (Setaria faberii); test: Test A pre-/postemergence plant response
How it was run: as §4

[11] = 250 g ai/ha, Preemergence, 0 to 100 scale
[12] = Postemergence, 31 g ai/ha, scale 0 to 100 (0 no effect, 100 complete control)
[13] = Postemergence, 62 g ai/ha, scale 0 (no effect) to 100 (complete control), 13 to 15 days
[14] = Postemergence, 125 g ai/ha, visual rating after 13 to 15 days, scale 0 (no effect) to 100 (complete control)
[15] = Postemergence, 250 g ai/ha, scale 0 to 100
[16] = Preemergence, 31 g ai/ha, scale 0 to 100 (0 no effect, 100 complete control)
[17] = Preemergence, 62 g ai/ha, scale 0 to 100, 0 no effect, 100 complete control
[18] = Preemergence, 125 g ai/ha, 0 to 100 scale
[19] = Postemergence, 125 g ai/ha, visual injury, 0 to 100 scale (0 no effect, 100 complete control), approx. ten days
[20] = Postemergence, 500 g ai/ha, 0 to 100 scale, 0 = no effect, 100 = complete control, approx. ten days
[21] = Preemergence, 125 g ai/ha, 0 to 100 scale, 0 = no effect, 100 = complete control
[22] = Preemergence, 500 g ai/ha, visual injury, 0 to 100 scale (0 no effect, 100 complete control), approx. ten days
[23] = Postemergence, 31 g ai/ha, 0 to 100 scale (0 no effect, 100 complete control)
[24] = Postemergence, 125 g ai/ha, scale 0 (no effect) to 100 (complete control), 13 to 15 days
[25] = Postemergence, 250 g ai/ha, scale 0 to 100 (0 no effect, 100 complete control), 13 to 15 days
[26] = Postemergence, 62 g ai/ha, scale 0 to 100 (0 no effect, 100 complete control)
[27] = Postemergence, 125 g ai/ha, 0 to 100 scale where 0 is no effect and 100 is complete control
[28] = Postemergence, 500 g ai/ha, visual injury, 0 to 100 scale (0 no effect, 100 complete control), approx. ten days
[29] = Preemergence, 500 g ai/ha, 0 to 100 scale, 0 = no effect, 100 = complete control

Cc1ccc(C)c(-n2c(-c3ccccc3)ncc(C(=O)C3=C(O)CCCC3=O)c2=O)c1 [Compound 29]
90: Foxtail, Green plant response rating [1, 15] | Plant response rating, Cocklebur [2, 11] | Cocklebur plant response rating [2, 18] | Plant response rating, Foxtail, Giant [3, 13] | Plant response rating, Foxtail, Giant [3, 14] | Plant response rating, Morningglory [4, 20] | Plant response rating, Crabgrass, Large [6, 20] | Plant response rating, Barnyardgrass [9, 20] | Plant response rating, Foxtail, Giant [10, 20]
85: Plant response rating, Cocklebur [2, 12]
20: Plant response rating, Crabgrass, Large [6, 21] | Plant response rating, Velvetleaf [8, 21] | Barnyardgrass plant response rating [9, 19]
60: Plant response rating, Foxtail, Green [1, 12] | Morningglory plant response rating [4, 19]
5: Plant response rating, Cocklebur [2, 16]
30: Plant response rating, Foxtail, Giant [10, 21]
80: Plant response rating, Cocklebur [2, 17] | Plant response rating, Foxtail, Giant [3, 12] | Plant response rating, Morningglory [4, 22] | Pigweed plant response rating [7, 19]
70: Crabgrass, Large plant response rating [6, 19] | Foxtail, Giant plant response rating [10, 19]
98: Cocklebur plant response rating [2, 15]
75: Plant response rating, Foxtail, Green [1, 13] | Plant response rating, Foxtail, Green [1, 14]
50: Plant response rating, Foxtail, Giant [3, 17] | Plant response rating, Pigweed [7, 21]
10: Plant response rating, Foxtail, Giant [3, 16] | Plant response rating, Corn (corn (Zea mays); [20])
0: Plant response rating, Foxtail, Green [1, 16] | Corn plant response rating (corn (Zea mays); [19]) | Plant response rating, Corn (corn (Zea mays); [21]) | Plant response rating, Corn (corn (Zea mays); [22]) | Wheat plant response rating [5, 19] | Plant response rating, Wheat [5, 20] | Plant response rating, Wheat [5, 21] | Plant response rating, Wheat [5, 22] | Plant response rating, Barnyardgrass [9, 21]
95: Plant response rating, Cocklebur [2, 13] | Plant response rating, Cocklebur [2, 14] | Foxtail, Giant plant response rating [3, 15]
40: Plant response rating, Foxtail, Green [1, 17] | Plant response rating, Morningglory [4, 21]
100: Plant response rating, Foxtail, Green [1, 11] | Foxtail, Green plant response rating [1, 18] | Plant response rating, Foxtail, Giant [3, 11] | Foxtail, Giant plant response rating [3, 18] | Plant response rating, Crabgrass, Large [6, 22] | Plant response rating, Pigweed [7, 20] | Plant response rating, Pigweed [7, 22] | Velvetleaf plant response rating [8, 19] | Plant response rating, Velvetleaf [8, 20] | Plant response rating, Velvetleaf [8, 22] | Plant response rating, Barnyardgrass [9, 22] | Plant response rating, Foxtail, Giant [10, 22]

CCCCn1c(-c2ccccc2)ncc(C(=O)C2=C(O)C3CCC(C3)C2=O)c1=O (centres unmarked) [Compound 240]
98: Plant response rating, Foxtail, Green [1, 25]
95: Plant response rating, Foxtail, Green [1, 24]
20: Plant response rating, Wheat [5, 27] | Plant response rating, Pigweed [7, 21]
100: Plant response rating, Foxtail, Giant [3, 23] | Plant response rating, Foxtail, Giant [3, 24] | Plant response rating, Foxtail, Giant [3, 25] | Plant response rating, Foxtail, Giant [3, 26] | Plant response rating, Morningglory [4, 27] | Morningglory plant response rating [4, 28] | Crabgrass, Large plant response rating [6, 28] | Plant response rating, Crabgrass, Large [6, 29] | Pigweed plant response rating [7, 28] | Plant response rating, Pigweed [7, 29] | Plant response rating, Velvetleaf [8, 27] | Velvetleaf plant response rating [8, 28] | Plant response rating, Barnyardgrass [9, 27] | Barnyardgrass plant response rating [9, 28] | Foxtail, Giant plant response rating [10, 28]
90: Plant response rating, Foxtail, Green [1, 23] | Plant response rating, Foxtail, Green [1, 26] | Plant response rating, Crabgrass, Large [6, 27] | Plant response rating, Pigweed [7, 27] | Plant response rating, Foxtail, Giant [10, 27]
0: Plant response rating, Morningglory [4, 21] | Plant response rating, Morningglory [4, 29] | Plant response rating, Corn (corn (Zea mays); [21]) | Plant response rating, Wheat [5, 21]
40: Plant response rating, Corn (corn (Zea mays); [27]) | Plant response rating, Corn (corn (Zea mays); [29]) | Wheat plant response rating [5, 28] | Plant response rating, Wheat [5, 29] | Plant response rating, Barnyardgrass [9, 21] | Plant response rating, Foxtail, Giant [10, 21]
80: Corn plant response rating (corn (Zea mays); [28]) | Plant response rating, Velvetleaf [8, 29] | Plant response rating, Foxtail, Giant [10, 29]
60: Plant response rating, Velvetleaf [8, 21]
50: Plant response rating, Crabgrass, Large [6, 21]
